Test results taken from patent publication US9932637B2, “Genetic polymorphisms associated with cardiovascular disorders and drug response, methods of detection and uses thereof” (CELERA CORPORATION, priority 2003, dated 2018).

Tested on: patients with prior myocardial infarction (CARE study)
Test: CARE: association of SNPs with pravastatin treatment in cardiovascular events prevention (logistic regression, odds ratio pravastatin vs placebo by genotype; Table 8)
Format: in vivo, human
Conditions: for Definite Nonfatal MI, n/total (%) / Fatal CHD/Definite Nonfatal MI, n/total (%): CD6 hCV25922320, All Patients; for Fatal/Nonfatal MI (def & prob), n/total (%) / MI (Fatal/Nonfatal), n/total (%) / Nonfatal MI (def & prob), n/total (%): COL11A1 hCV8400671, All Patients
Source text: In order to identify genetic markers associated with acute coronary events (e.g. MI, stroke, unstable angina, congestive heart failure, etc.) or response to statin treatment for the prevention of coronary events, samples from the Cholesterol and Recurrent Events (CARE) study (a randomized multicentral double-blinded trial on secondary prevention of acute coronary events with pravastatin) (Sacks et al., 1991, Am. J. Cardiol. 68: 1436-1446) were genotyped. A well-documented myocardial infarction (MI) was one of the enrollment criteria for entry into the CARE study. Patients were enrolled in the CARE trial from 80 participating study centers. […] Patients were randomized to receive either 40 mg of pravastatin once daily or a matching placebo. The primary endpoint of the trial was death from coronary heart disease and the median duration of follow-up was 5.0 years (range, 4.0 to 6.2 years). […] Secondary endpoints of other related cardiovascular or metabolic disease events, and changes in clinical variables were also recorded in pravastatin-treated and placebo groups. All individuals included in the study had signed a written informed consent form and the study protocol was approved by the respective Institutional Review Boards (IRBs).
For genotyping SNPs in CARE patient samples, DNA was extracted from blood samples using conventional DNA extraction methods such as the QIA-amp kit from Qiagen. Genotypes were obtained on an ABI PRISM® 7900HT Sequence Detection PCR system (Applied Biosystems, Foster City, Calif.) by kinetic allele-specific PCR, similar to the method described by Germer et al. (Germer S., Holland M. J., Higuchi R. 2000, Genome Res. 10: 258-266).
Statistical analysis for association of SNPs with pravastatin treatment in cardiovascular events prevention (Table 8) was carried out using an overall logistic regression model that included an intercept, a parameter for the effect of a genotype containing two rare alleles versus a genotype containing no rare alleles, a parameter for the effect of a genotype containing one rare allele versus a genotype containing no rare alleles, a parameter for the effect of use of pravastatin versus the use of placebo, and parameters for the interaction effects between SNP genotypes and pravastatin use. The test of the overall model is a chi-square test with two degrees of freedom for analyses containing all three genotypes, and one degree of freedom for analyses containing two genotypes.
Effect sizes were estimated through odds ratios (pravastatin group versus placebo) for carriers of each genotype (groups of 0, 1, and 2 minor allele carriers). The effect was considered to be significant if p-value for testing whether any of the interactions between SNP genotypes and pravastatin use were <0.05. […] Odds ratios less than one indicate that the specific SNP allele has a protective effect and odds ratios greater than one indicate that the specific SNP allele has an adverse effect.

[1] = CCL11 hCV7449808, All Patients, 2 Rare Alleles, Prava, n/total 9/34
[2] = CCL11 hCV7449808, All Patients, Fatal/Non-fatal Atherosclerotic CV Disease
[3] = CCL11 hCV7449808, All Patients, Hosp. for Cardiovascular Disease
[4] = CCL11 hCV7449808, All Patients, Total Cardiovascular Disease Events
[5] = CCL11 hCV7449808, All Patients, Total Coronary Heart Disease Events
[6] = CD6 hCV2553030, All Patients, 0 Rare Alleles, Prava arm
[7] = CD6 hCV2553030, All Patients, 1 Rare Allele, Prava arm
[8] = CD6 hCV2553030, All Patients, 2 Rare Alleles, Prava arm
[9] = CHUK hCV1345898, All Patients, Hosp. for Unstable Angina
[10] = CHUK hCV1345898, All Patients, Non-fatal MI (def & prob)

In the case of CC[C@H](C)C(=O)O[C@H]1C[C@H](O)C=C2C=C[C@H](C)[C@H](CC[C@@H](O)C[C@@H](O)CC(=O)O)[C@H]21 [pravastatin], the “Total Coronary Heart Disease Events, n/total (%)” value (CCL11 hCV7449808, All Patients, 2 Rare Alleles, Prava, n/total 4/34) is reported as “(11.8%)”, the “Fatal/Non-fatal Atherosclerotic CV Disease, n/total (%)” value (CCL11 hCV7449808, All Patients, 2 Rare Alleles, Prava, n/total 7/34) is reported as “(20.6%)” and the “Hosp. for Cardiovascular Disease, n/total (%)” value [1] is reported as “(26.5%)”. The “Total Cardiovascular Disease Events, n/total (%)” value [1] was “(26.5%)”, the “Prava vs. Placebo Odds Ratio, 0 Rare Alleles” value [2] was 0.80 and the “Prava vs. Placebo Odds Ratio, 1 Rare Alleles” value [2] was 0.82. The “Prava vs. Placebo Odds Ratio, 2 Rare Alleles” value [2] was 0.21, the “Prava vs. Placebo Odds Ratio, 0 Rare Alleles” value [3] was 0.76 and the “Prava vs. Placebo Odds Ratio, 1 Rare Alleles” value [3] was 0.91. For the same compound, the “Prava vs. Placebo Odds Ratio, 2 Rare Alleles” value [3] was 0.16, the “Prava vs. Placebo Odds Ratio, 0 Rare Alleles” value [4] was 0.77 and the “Prava vs. Placebo Odds Ratio, 1 Rare Alleles” value [4] was 0.88. The “Prava vs. Placebo Odds Ratio, 2 Rare Alleles” value [4] was 0.14, the “Prava vs. Placebo Odds Ratio, 0 Rare Alleles” value [5] was 0.80 and the “Prava vs. Placebo Odds Ratio, 1 Rare Alleles” value [5] was 0.84. For the same compound, the “Prava vs. Placebo Odds Ratio, 2 Rare Alleles” value [5] was 0.16, the “Hosp. for Cardiovascular Disease, n/total (%)” value [6] was “(41.5%)” and the “Total Cardiovascular Disease Events, n/total (%)” value [6] was “(43.2%)”. The “Hosp. for Cardiovascular Disease, n/total (%)” value [7] was “(39.9%)”, the “Total Cardiovascular Disease Events, n/total (%)” value [7] was “(40.3%)” and the “Hosp. for Cardiovascular Disease, n/total (%)” value [8] was “(31.3%)”. The “Total Cardiovascular Disease Events, n/total (%)” value [8] was “(33.0%)”, the “Odds ratio pravastatin vs placebo” value (CD6 hCV2553030, All Patients, Hosp. for Cardiovascular Disease, 0 rare alleles) was 0.81 and the “Odds ratio pravastatin vs placebo” value (CD6 hCV2553030, All Patients, Hosp. for Cardiovascular Disease, 1 rare allele) was 0.78. For the same compound, the “Odds ratio pravastatin vs placebo” value (CD6 hCV2553030, All Patients, Hosp. for Cardiovascular Disease, 2 rare alleles) was 0.37, the “Odds ratio pravastatin vs placebo” value (CD6 hCV2553030, All Patients, Total Cardiovascular Disease Events, 0 rare alleles) was 0.83 and the “Odds ratio pravastatin vs placebo” value (CD6 hCV2553030, All Patients, Total Cardiovascular Disease Events, 1 rare allele) was 0.74. The “Odds ratio pravastatin vs placebo” value (CD6 hCV2553030, All Patients, Total Cardiovascular Disease Events, 2 rare alleles) was 0.38, the “Definite Nonfatal MI, n/total (%)” value (0 Rare Alleles, Prava arm) was “(5.7%)” and the “Fatal CHD/Definite Nonfatal MI, n/total (%)” value (0 Rare Alleles, Prava arm) was “(7.7%)”. For the same compound, the “Definite Nonfatal MI, n/total (%)” value (1 Rare Allele, Prava arm) was “(9.2%)”, the “Fatal CHD/Definite Nonfatal MI, n/total (%)” value (1 Rare Allele, Prava arm) was “(12.3%)” and the “Definite Nonfatal MI, n/total (%)” value (2 Rare Alleles, Prava arm) was “(4.8%)”. For the same compound, the “Fatal CHD/Definite Nonfatal MI, n/total (%)” value (2 Rare Alleles, Prava arm) was “(9.7%)”, the “Odds ratio pravastatin vs placebo” value (CD6 hCV25922320, All Patients, Definite Nonfatal MI, 0 rare alleles) was 0.52 and the “Odds ratio pravastatin vs placebo” value (CD6 hCV25922320, All Patients, Definite Nonfatal MI, 1 rare allele) was 1.12. The “Odds ratio pravastatin vs placebo” value (CD6 hCV25922320, All Patients, Definite Nonfatal MI, 2 rare alleles) was 0.63, the “Odds ratio pravastatin vs placebo” value (CD6 hCV25922320, All Patients, Fatal CHD/Definite Nonfatal MI, 2 rare alleles) was 0.92 and the “Non-fatal MI (def & prob), n/total (%)” value (CHUK hCV1345898, All Patients, 0 Rare Alleles, Prava, n/total 47/413) was “(11.4%)”. The “Hosp. for Unstable Angina, n/total (%)” value (CHUK hCV1345898, All Patients, 0 Rare Alleles, Prava, n/total 68/413) was “(16.5%)”, the “Non-fatal MI (def & prob), n/total (%)” value (CHUK hCV1345898, All Patients, 1 Rare Allele, Prava, n/total 69/734) was “(9.4%)” and the “Hosp. for Unstable Angina, n/total (%)” value (CHUK hCV1345898, All Patients, 1 Rare Allele, Prava, n/total 110/734) was “(15.0%)”. The “Non-fatal MI (def & prob), n/total (%)” value (CHUK hCV1345898, All Patients, 2 Rare Alleles, Prava, n/total 17/354) was “(4.8%)”, the “Hosp. for Unstable Angina, n/total (%)” value (CHUK hCV1345898, All Patients, 2 Rare Alleles, Prava, n/total 51/354) was “(14.4%)” and the “Prava vs. Placebo Odds Ratio, 0 Rare Alleles” value [9] was 1.38. For the same compound, the “Prava vs. Placebo Odds Ratio, 1 Rare Alleles” value [9] was 0.76, the “Prava vs. Placebo Odds Ratio, 2 Rare Alleles” value [9] was 0.59 and the “Prava vs. Placebo Odds Ratio, 0 Rare Alleles” value [10] was 0.86. The “Prava vs. Placebo Odds Ratio, 1 Rare Alleles” value [10] was 0.77, the “Prava vs. Placebo Odds Ratio, 2 Rare Alleles” value [10] was 0.34 and the “Fatal/Nonfatal MI (def & prob), n/total (%)” value (from here on “Fatal/Nonfatal MI … (%)”) (0 Rare Alleles, Prava arm) was “(10.6%)”. For the same compound, the “MI (Fatal/Nonfatal), n/total (%)” value (0 Rare Alleles, Prava arm) was “(10.7%)”, the “Nonfatal MI (def & prob), n/total (%)” value (0 Rare Alleles, Prava arm) was “(9.6%)” and the “Fatal/Nonfatal MI … (%)” value (1 Rare Allele, Prava arm) was “(8.2%)”. For the same compound, the “MI (Fatal/Nonfatal), n/total (%)” value (1 Rare Allele, Prava arm) was “(8.6%)”, the “Nonfatal MI (def & prob), n/total (%)” value (1 Rare Allele, Prava arm) was “(7.7%)” and the “Fatal/Nonfatal MI … (%)” value (2 Rare Alleles, Prava arm) was “(4.1%)”. For the same compound, the “MI (Fatal/Nonfatal), n/total (%)” value (2 Rare Alleles, Prava arm) was “(4.1%)”.
